36 compounds from patent US8158621B2, “Methods of treating or preventing autoimmune diseases with 2,4-pyrimidinediamine compounds” (Rigel Pharmaceuticals, Inc., priority 2002, dated 2012) can be followed below.

Assay [1] deals with cultured human mast cells (CHMC). The experiment in a line: CHMC low cell density IgE activation: tryptase assay. Type of assay: cell-based. As to conditions: low cell density; read-out: CHMC anti-IgE Tryptase. The essentials:
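Cells pelleted, taken up in warm MT, plated at 1000-1500/well, held 1 hr 37° C. Anti-IgE added, 30 min 37° C. Plates spun; supernatant mixed with tryptase substrate, 30 min RT.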

For assay [2] the test system is unchanged. The assay can be described thus: CHMC low cell density ionomycin activation: tryptase assay. As to conditions: low cell density; read-out: CHMC Ionomycin Tryptase. Format: cell-based.
The target of the next assay is T1, Syk kinase (Homo sapiens, UniProt P43405).
T1 construct: purchased Upstate, Lake Placid NY
The experiment in a line: Syk kinase biochemical fluorescence polarization assay. As to conditions: isolated Syk kinase, fluorescence polarization, 4 uM ATP.

Assay [3] deals with Human Jurkat T-cells (clone N). The experiment in a line: Jurkat T-cell activation (anti-TCR, CD69 upregulation). Format: cell-based. The gist of the method: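 Jurkat cells in RPMI + 5% FBS preincubated with compound 1 h at 37 °C, then stimulated with anti-TCR C305 at 500 ng/ml for 20 h. CD69 surface expression stained with anti-CD69-APC and read by flow cytometry; IC50 versus solvent-only control.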

`COc1ccc(Nc2ncc(F)c(Nc3ccc4c(c3)NC(=O)C(F)(F)O4)n2)cc1Cl` [Compound R926981]: the IC50 was 0.137 µM in assay [1], over 10 µM in assay [2] and 0.01 µM against Syk kinase.

Regarding `COC(=O)N1CCN(c2ccc(Nc3ncc(F)c(NC4CC4)n3)cc2)CC1` [Compound R945371], the IC50 was 0.713 µM in assay [1], over 10 µM in assay [2] and 1.3 µM at Syk kinase.

Turning to `O=C1Nc2cc(Nc3nc(Nc4ccc5cc[nH]c5c4)ncc3F)ccc2OC1(F)F` [Compound R926977], the IC50 in assay [1] is 0.0359 µM; in assay [2], over 10 µM; at Syk kinase, 0.007 µM.

With `COc1ccc(Nc2nc(Nc3cc(C)c(O)c(Cl)c3)ncc2F)cc1Cl` [Compound R926968], the IC50 was 0.249 µM in assay [1], 0.235 µM against Syk kinase and 2.02 µM in assay [3].

Turning to `CN(C)C(=O)C1Cc2cc(Nc3ncc(F)c(Nc4ccc5c(c4)NC(=O)C(F)(F)O5)n3)ccc2O1` (centres unmarked) [Compound R926983], the values for the IC50 (in assay [1]; in assay [2]; on Syk kinase) were 0.195 µM, over 10 µM and 0.012 µM, respectively.

With `COC(=O)N1CCN(c2ccc(Nc3ncc(F)c(Nc4ccc5c(n4)NC(=O)CO5)n3)cc2)CC1` [Compound R945392], the IC50 in assay [1] is 0.085 µM; in assay [2] it was over 10 µM; on Syk kinase, 0.014 µM.

As to `CNC(=O)CCn1ncc2cc(Nc3ncc(F)c(Nc4ccc5c(c4)NC(=O)C(C)(C)O5)n3)ccc21` [Compound R935433], the IC50 in assay [1] came out at 0.106 µM; in assay [2], 16.2 µM; at Syk kinase, 0.07 µM.

As for `COc1cc(Nc2ncc(F)c(Nc3cccc(N)n3)n2)cc(OC)c1` [Compound R927077], the figures for the IC50 (in assay [1]; in assay [2]; against Syk kinase) were 0.284 µM, 8.8 µM and 0.602 µM, respectively.

Consider `CC(=O)N1CCN(c2ccc(Nc3ncc(F)c(Nc4ccc5c(n4)NC(=O)CO5)n3)cc2)CC1` [Compound R945391], for which the IC50 in assay [1] was 0.094 µM; in assay [2], over 10 µM; against Syk kinase it was 0.01 µM.

Regarding `CC1(C)Oc2ccc(Nc3nc(Nc4ccc5c(cnn5CCCO)c4)ncc3F)cc2NC1=O` [Compound R935432], the IC50 in assay [1] came to 0.036 µM; in assay [2] it was 8.5 µM; on Syk kinase, 0.05 µM.

In the case of `Cn1ncc2ccc(Nc3ncc(F)c(Nc4ccc5c(c4)NC(=O)C(F)(F)O5)n3)cc21` [Compound R940368], the IC50 in assay [1] was 0.025 µM; in assay [2], 1.58 µM; at Syk kinase, 0.001 µM.

As to `O=C1Nc2cc(Nc3nc(Nc4ccc5cn[nH]c5c4)ncc3F)ccc2OC1(F)F` [Compound R940364], the IC50 in assay [1] was 0.046 µM; in assay [2] it was over 10 µM; on Syk kinase, 0.001 µM.

As to `NC1CCOc2ccc(Nc3nc(Nc4ccc(Cl)c(Cl)c4)ncc3F)cc21` (racemic) [Compound R950430], the IC50 in assay [1] stood at 0.239 µM; against Syk kinase, 0.15 µM.

For `O=C1COc2ccc(Nc3nc(Nc4ccc5c(c4)OCCO5)ncc3F)nc2N1` [Compound R945405], the IC50 in assay [1] was 0.131 µM; against Syk kinase it was 0.168 µM.

For `COc1cc(Nc2ncc(F)c(Nc3ccc(Cl)c(Cl)c3)n2)cc(OC)c1` [Compound R927060], the IC50 was 0.222 µM in assay [1], 5.17 µM in assay [2] and 0.62 µM against Syk kinase.

With `CCN(C(C)=O)c1ccc(Nc2ncc(F)c(Nc3ccc4c(n3)NC(=O)C(C)(C)O4)n2)cc1` [Compound R945418], the IC50 (in assay [2]; against Syk kinase) was over 10 µM each time.

Take `Cc1cccc(C)c1Nc1ncc(F)c(Nc2cccc(N)n2)n1` [Compound R927078]: the IC50 in assay [1] was determined as 0.245 µM; on Syk kinase it was 0.222 µM.

For `COc1ccc(Nc2ncc(F)c(Nc3ccc4c(n3)NC(=O)C(C)(C)O4)n2)cc1Cl` [Compound R940371], the IC50 amounted to 0.316 µM in assay [1] and 3.64 µM against Syk kinase.

In the case of `CC1(C)Oc2ccc(Nc3nc(Nc4ccc(OC(F)(F)F)c(Cl)c4)ncc3F)nc2NC1=O` [Compound R940390], the IC50 (in assay [1]; in assay [2]; against Syk kinase) was over 10 µM throughout.

With `C[C@@H]1Oc2ccc(Nc3ncc(F)c(Nc4ccc5c(c4)NC(=O)[C@H](C)O5)n3)cc2NC1=O` [Compound R908952], the IC50 was found to be 0.08 µM in assay [1], 6.07 µM in assay [2] and 0.041 µM on Syk kinase.

Take `CC(C)Oc1ccc(Nc2ncc(F)c(Nc3ccc4c(n3)NC(=O)CO4)n2)cc1` [Compound R945413]: the IC50 in assay [1] was 1.7 µM; against Syk kinase it was over 10 µM.

On to `O=C1COc2ccc(Nc3nc(Nc4cccc(OCC(=O)NC5CC5)c4)ncc3F)nc2N1` [Compound R945390], for which the IC50 in assay [1] is 0.118 µM; in assay [2], over 10 µM; at Syk kinase it was 0.009 µM.

`COc1ccc(Nc2ncc(F)c(Nc3ccc4c(c3)NC(=O)[C@H](C)O4)n2)cc1Cl` [Compound R909321]: the results for the IC50 (in assay [1]; in assay [2]; against Syk kinase) were 0.163 µM, 30 µM and 0.104 µM, respectively.

`CCOC(=O)CCn1ncc2cc(Nc3ncc(F)c(Nc4ccc5c(c4)NC(=O)C(C)(C)O5)n3)ccc21` [Compound R935431]: the IC50 came to 0.124 µM in assay [1] and 0.132 µM on Syk kinase.

In the case of `COC(=O)Cn1ncc2cc(Nc3ncc(F)c(Nc4ccc5c(c4)NC(=O)C(C)(C)O5)n3)ccc21` [Compound R935436], the results for the IC50 (in assay [1]; on Syk kinase) were 0.058 µM and 0.064 µM, respectively.

Consider `O=C1COc2ccc(Nc3nc(Nc4ccc(Cl)c(Cl)c4)ncc3F)nc2N1` [Compound R945398], for which the IC50 turned out to be 7 µM in assay [1] and 0.182 µM against Syk kinase.

Consider `COC(=O)N1CCN(c2ccc(Nc3ncc(F)c(Nc4ccc5c(n4)NC(=O)C(C)(C)O5)n3)cc2)CC1` [Compound R945416], for which the results for the IC50 (in assay [1]; against Syk kinase) were 0.053 µM and 0.515 µM, respectively.

Turning to `COc1cc(Nc2ncc(F)c(Nc3ccc4c(n3)NC(=O)CO4)n2)cc(OC)c1` [Compound R945401], the IC50 in assay [2] was over 10 µM; against Syk kinase, 0.007 µM.

As for `CNC(=O)COc1cccc(Nc2ncc(F)c(Nc3cccc(N)n3)n2)c1` [Compound R927080], the figures for the IC50 (in assay [1]; against Syk kinase) were 0.204 µM and 0.254 µM, respectively.

For `CC(=O)N1CCN(c2ccc(Nc3ncc(F)c(Nc4ccc5c(n4)NC(=O)C(C)(C)O5)n3)cc2)CC1` [Compound R945419], the IC50 stood at 0.125 µM in assay [1] and 0.127 µM at Syk kinase.

With `Cc1cc(C)cc(Nc2ncc(F)c(Nc3ccc4c(n3)NC(=O)CO4)n2)c1` [Compound R945432], the IC50 in assay [1] turned out to be 0.049 µM; against Syk kinase, 4440 µM.

Take `COc1ccc(Nc2ncc(F)c(Nc3ccc4c(n3)NC(=O)CO4)n2)cc1` [Compound R945404]: the IC50 in assay [1] is 0.103 µM; at Syk kinase it was over 10 µM.

`CC1(C)Oc2ccc(Nc3nc(Nc4cccc(O)c4)ncc3F)nc2NC1=O` [Compound R940382]: the IC50 in assay [1] came to 0.104 µM; at Syk kinase, 0.144 µM.

As to `O=C1COc2ccc(Nc3nc(Nc4ccc(N5CCOCC5)cc4)ncc3F)nc2N1` [Compound R945412], the figures for the IC50 (in assay [1]; on Syk kinase) were 0.095 µM and 0.308 µM, respectively.

As for `CC1(C)Oc2ccc(Nc3nc(Nc4cc(Cl)c(O)c(Cl)c4)ncc3F)cc2NC1=O` [Compound R927051], the IC50 in assay [2] worked out at 12.6 µM; on Syk kinase it was 0.01 µM.

As for `CC1(C)Oc2ccc(Nc3nc(Nc4cccc(Cl)c4)ncc3F)nc2NC1=O` [Compound R940386], the IC50 came out at 3.42 µM in assay [1] and 19.5 µM against Syk kinase.
